Like-named read-outs stand apart in the source and are kept apart here.
Columns and labels:
[1] = target: T1, Gastrin receptor (gastric glands) (Cavia porcellus, UniProt H0VZC5); assay: Gastrin Receptor Binding in Guinea Pig Gastric Glands; design: species or system guinea pig (male Hartley); conditions: 25° C., 30 minutes
T1 construct: The washed guinea pig gastric glands prepared as above were resuspended; from tissue; host or cells: guinea pig gastric mucosal glands (male Hartley)
T1 sequence (H0VZC5 1-426): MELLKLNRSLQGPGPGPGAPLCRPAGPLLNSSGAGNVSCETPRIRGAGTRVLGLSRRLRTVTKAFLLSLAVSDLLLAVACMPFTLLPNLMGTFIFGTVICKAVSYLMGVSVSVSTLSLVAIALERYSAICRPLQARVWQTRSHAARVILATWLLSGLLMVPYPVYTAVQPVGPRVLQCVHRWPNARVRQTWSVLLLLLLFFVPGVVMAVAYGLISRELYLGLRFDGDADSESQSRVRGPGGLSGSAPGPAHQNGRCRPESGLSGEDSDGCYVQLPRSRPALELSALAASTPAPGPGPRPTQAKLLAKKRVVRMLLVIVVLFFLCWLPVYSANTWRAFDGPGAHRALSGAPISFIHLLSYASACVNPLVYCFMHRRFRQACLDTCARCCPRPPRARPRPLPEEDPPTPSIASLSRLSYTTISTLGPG

[2] = target: T2, CCK receptor (brain, cerebral cortex) (Cavia porcellus, UniProt H0VZC5); assay: biochemical; type: binding, Male Hartley guinea pigs; conditions: guinea pig cerebral cortex, ^125 I-CCK-33, 25° C., 2 hours
T2 construct: Cerebral cortex was dissected and used as a receptor source; from tissue; host or cells: guinea pig cerebral cortex membranes (male Hartley)
T2 sequence (H0VZC5 1-426): T1 sequence (H0VZC5 1-426)
Summary of the method: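 Binding of [radiolabeled] CCK-33 measured by gamma counting of centrifuged pellets after 2 h at 25°C. Membranes came from guinea pig brain cortex, suspended in 10 mM HEPES, 5 mM MgCl2, 1 mM EGTA, 0.25 mg/ml bacitracin, 0.4% BSA.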

[3] = target: T3, CCK receptor (pancreas) (Rattus norvegicus, UniProt P30551); assay: CCK Receptor Binding (Pancreas): inhibition of ^125 I-CCK-33 binding; design: species or system Male Sprague-Dawley rats; conditions: IC50 ^125 I-CCK Pancreas, rat pancreas membranes, ^125 I-CCK-33, 37° C., 30 minutes
T3 construct: The whole pancreas was dissected free of fat tissue and was homogenized; from tissue; host or cells: rat pancreas membranes (Sprague-Dawley)
T3 sequence (P30551 1-444): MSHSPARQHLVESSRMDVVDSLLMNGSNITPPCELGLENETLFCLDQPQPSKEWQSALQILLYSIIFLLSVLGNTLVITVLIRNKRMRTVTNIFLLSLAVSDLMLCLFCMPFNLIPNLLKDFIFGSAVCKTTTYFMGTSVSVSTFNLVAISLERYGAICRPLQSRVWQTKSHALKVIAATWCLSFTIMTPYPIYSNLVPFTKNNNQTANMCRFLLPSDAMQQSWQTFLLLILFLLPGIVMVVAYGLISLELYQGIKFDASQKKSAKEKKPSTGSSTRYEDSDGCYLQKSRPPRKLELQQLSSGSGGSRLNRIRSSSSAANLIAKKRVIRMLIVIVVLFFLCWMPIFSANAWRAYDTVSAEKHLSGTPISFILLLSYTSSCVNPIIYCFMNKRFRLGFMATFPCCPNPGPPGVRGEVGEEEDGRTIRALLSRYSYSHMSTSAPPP
Summary of the method: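 Bound ^125I-CCK-33 was counted in pellets after a 30 min, 37° C incubation followed by centrifugation. Membranes came from male Sprague-Dawley rat pancreas, assayed in Tris HCl pH 7.7 containing DTT, bacitracin, PMSF and o-phenanthroline. For Scatchard analysis, tracer was diluted with rising unlabelled CCK-33.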

[4] = IC50 ^125 I-Gastrin Gastric Glands
[5] = ^125 I-gastrin, read-out: IC50 ^125 I-Gastrin Gastric Glands
[6] = read-out: IC50 ^125 I-CCK Brain

| SMILES | IC50 [1, 4] [µM] | IC50 ([2]; IC50 ^125 I-CCK Brain) [µM] | IC50 [3] [µM] | IC50 [1, 5] [µM] | IC50 [2, 6] [µM] |
| --- | --- | --- | --- | --- | --- |
| O=C(OC1N=C(c2ccccc2)c2ccccc2NC1=O)c1cc2ccccc2[nH]1 (racemic) [Example 107, 1,3-Dihydro-3-(RS)-(2-indolecarbonyloxy)-5-phenyl-2H-1,4-benzodiazepin-2-one] | > 10 | 50 | 0.049 |  |  |
| O=C(NC1N=C(c2ccccc2F)c2ccccc2NC1=O)c1ccc(Cl)cc1 (racemic) [Example 111, 1,3-Dihydro-3-(RS)-(4-chlorophenylcarbonyl)amino-5-(2-fluorophenyl)-2H-1,4-benzodiazepin-2-one] | 8.4 | 40 | 0.007 |  |  |
| Cc1ccc(S(=O)(=O)NC2N=C(c3ccccc3F)c3ccccc3NC2=O)cc1 (racemic) [Example 112, 1,3-Dihydro-3-(RS)-(4-methylphenylsulfonyl)amino-5-(2-fluorophenyl)-2H-1,4-benzodiazepin-2-one] |  |  | 24 | > 10 | > 50 |
| CC1=C(C(=O)NC2N=C(c3ccccc3F)c3ccccc3NC2=O)Cc2ccccc21 (racemic) [Example 115, 1,3-Dihydro-3-(RS)-(3'-methylindenyl-2-carbonyl)amino-5-(2-fluorophenyl)-2H-1,4-benzodiazepin-2-one] |  |  | 0.022 | > 10 | 3.5 |
| O=C(NC1N=C(c2ccccc2F)c2ccccc2NC1=O)c1ccc2ccccc2n1 (racemic) [Example 116] |  |  | 0.3 | > 10 | 80 |
| O=C1Nc2ccccc2C(c2ccccc2F)=NC1NCc1cc2ccccc2[nH]1 (racemic) [Example 124, 1,3-Dihydro-5-(2-fluorophenyl)-3-(RS)-(2-indolylmethyl-amino)-2H-1,4-benzodiazepin-2-one] | > 10 | 100 | 0.25 |  |  |
| O=C(CNc1ccccc1)NC1N=C(c2ccccc2F)c2ccccc2NC1=O (racemic) [Example 125, 1,3-Dihydro-3-(RS)-(phenylaminomethylcarbonyl)amino-5-(2-fluorophenyl)-2H-1,4-benzodiazepin-2-one] | > 10 | 100 | 0.9 |  |  |
| N#Cc1ccc(C(=O)NC2N=C(c3ccccc3)c3ccccc3NC2=O)cc1 (racemic) [Example 149, 3-(RS)-(4'-Cyanobenzoylamino)1,3-dihydro-5-phenyl-2H-1,4-benzodiazepin-2-one] | 22 | > 100 | 0.73 |  |  |
| O=C(NC1N=C(c2ccccc2F)c2ccccc2NC1=O)OCc1ccccc1 (racemic) [Example 175, 1,3-Dihydro-5-(2-fluorophenyl)-3(RS)-benzyloxycarbonylamino-2H-1,4-benzodiazepin-2-one] |  |  | 0.7 | 8 | 15 |
| O=C(NC1N=C(c2ccccc2F)c2ccccc2NC1=S)OCc1ccccc1 (racemic) [Example 176, 1,3-Dihydro-5-(2-fluorophenyl)-3-(RS)-benzyloxycarbonylamino-2H-1,4-benzodiazeoin-2-thione] | 3.2 | 10 | 1 |  |  |
| O=C(OC1N=C(c2ccccc2F)c2ccccc2N(C(=O)c2ccc(Cl)cc2)C1=O)c1ccc(Cl)cc1 (racemic) [Example 178, 1-(4-Chlorophenyl)carbonyl-1,3-dihydro-5-(2-fluorophenyl)-3(RS)-(4-chlorophenyl)carbonyloxy-2H-1,4-benzodiazepin-2-one] |  |  | 4.9 | > 100 | > 100 |
| O=C(OC1N=C(c2ccccc2F)c2ccccc2NC1=O)c1ccc(Cl)cc1 (racemic) [Example 179, 1,3-Dihydro-5-(2-fluorophenyl)-3(RS)-(4-chlorobenzoyl)oxy-2H-1,4-benzodiazepin-2-one] | 18 | 3.6 | 4.4 |  |  |
| O=C(NC1N=C(c2ccccc2F)c2ccccc2NC1=S)c1ccc(Cl)cc1 (racemic) [Example 180, 1,3-Dihydro-5-(2-fluorophenyl)-3-(RS)-(4-chlorophenyl)carbonylamino-2H-1,4-benzodiazepin-2-thione] | 11 | > 100 | 0.016 |  |  |

From patent US4820834A, “Benzodiazepine analogs” (priority 1987, dated 1989)
